How the values were obtained:
[1] = molar heat capacity at constant pressure; settings: 101.3 kPa, Liquid, Small sample (50 mg) DSC
[2] = molar heat capacity at constant pressure; xn = mol fraction of the nth substance listed; settings: 101.3 kPa, Liquid, Small sample (50 mg) DSC

Cc1ccc(C)cc1 [1,4-dimethylbenzene]
[1]
Settings	molar heat capacity at constant pressure [J/K/mol]
288.15 K	178.86
298.15 K	182.56
308.15 K	186.15

Cc1ccc(C)cc1 [1,4-dimethylbenzene] + CCCCCCCCCC
molar heat capacity at constant pressure [J/K/mol], [2]
Settings	288.15 K	298.15 K	308.15 K
x1 = 0.05066	303.41	308.28	313.15
x1 = 0.1092	295.7	300.41	305.32
x1 = 0.1983	283.92	288.58	293.34
x1 = 0.3105	269	273.63	278.21
x1 = 0.3427	264.73	269.34	273.97
x1 = 0.4538	250.03	254.47	258.95
x1 = 0.4919	244.95	249.41	253.84
x1 = 0.5995	230.71	235.12	239.35
x1 = 0.6975	217.77	222.04	226.15
x1 = 0.7866	206.1	210.33	214.31
x1 = 0.8403	199.13	203.21	207.08
x1 = 0.8993	191.5	195.54	199.3
x1 = 0.9499	185.04	188.96	192.6

Cc1ccc(C)cc1 [1,4-dimethylbenzene] + COC(=O)OC
molar heat capacity at constant pressure [J/K/mol], [2]
Settings	288.15 K	298.15 K	308.15 K
x2 = 0	178.86	182.56	186.15
x2 = 0.04522	178.07	181.79	185.28
x2 = 0.09687	177.32	180.82	184.22
x2 = 0.2003	175.72	178.96	182.14
x2 = 0.3136	173.97	176.99	179.84
x2 = 0.4125	172.39	175.09	177.74
x2 = 0.4946	171.06	173.56	176.04
x2 = 0.5368	170.43	172.79	175.13
x2 = 0.6528	168.55	170.61	172.04
x2 = 0.8445	165.6	167.14	168.84
x2 = 0.9	164.89	166.25	167.79

— the NIST ThermoML archive (doi:10.1016/j.fluid.2005.03.026)
